Assay results: paper PMC4448990 (Pharmacology Research & Perspectives, 2015)
Where “and” joins values, the source holds several entries; their conditions need not be identical. Identical values can stand only once. Like-named read-outs stand apart in the source and are kept apart here.

Tests used:
[1] = system: P-glycoprotein; details: ref Fortuna et al. [2012]; cited from earlier work
[2] = system: GABA A, BDZ, alpha 5 site; assay: in vitro selectivity profile; assay type: binding; details: eslicarbazepine 400 μmol/L
[3] = target: Protease, caspase, CASP-10 (h) (Homo sapiens, UniProt Q92851); assay: in vitro selectivity profile; assay type: biochemical
Sequence of Protease, caspase, CASP-10 (h) (Q92851 220-415 limits assumed): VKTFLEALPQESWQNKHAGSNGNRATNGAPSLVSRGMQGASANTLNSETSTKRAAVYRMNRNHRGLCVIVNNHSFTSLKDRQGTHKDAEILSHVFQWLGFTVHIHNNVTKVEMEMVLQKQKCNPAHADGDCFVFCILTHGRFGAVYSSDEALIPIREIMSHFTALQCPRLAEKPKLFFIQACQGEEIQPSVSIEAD
Sequence of Protease, caspase, CASP-10 (h) (Q92851 416-521 limits assumed): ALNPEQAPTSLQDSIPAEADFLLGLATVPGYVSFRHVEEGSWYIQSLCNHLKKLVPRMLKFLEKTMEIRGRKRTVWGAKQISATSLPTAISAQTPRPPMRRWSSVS

[4] = system: Cholecystokinin, CCK2 (CCKB); assay: in vitro selectivity profile; assay type: binding; details: eslicarbazepine 400 μmol/L
[5] = system: Oxidase, MAO-A, central; assay: in vitro selectivity profile; assay type: biochemical; details: eslicarbazepine 400 μmol/L
[6] = system: Oxygenase, COX-2; assay: in vitro selectivity profile; assay type: biochemical; details: eslicarbazepine 400 μmol/L
[7] = human plasma and CSF pharmacokinetics; assay type: in vivo; details: ESL 1200 mg once daily, protein binding 30%
[8] = system: Opioid, kappa 1; assay: in vitro selectivity profile; assay type: binding; details: eslicarbazepine 400 μmol/L
[9] = system: Purinergic, P2Y; assay: in vitro selectivity profile; assay type: binding; details: eslicarbazepine 400 μmol/L
[10] = target: Serotonin, 5HT7 (h) (Homo sapiens, UniProt P34969); assay: in vitro selectivity profile; assay type: binding
[11] = target: human α2β2γ2 GABAA receptors (Homo sapiens, UniProt P18507+P47869+P47870); assay: submaximal GABA currents in Ltk cells; assay type: cell-based
Sequence of human α2β2γ2 GABAA receptors (P47869 29-451): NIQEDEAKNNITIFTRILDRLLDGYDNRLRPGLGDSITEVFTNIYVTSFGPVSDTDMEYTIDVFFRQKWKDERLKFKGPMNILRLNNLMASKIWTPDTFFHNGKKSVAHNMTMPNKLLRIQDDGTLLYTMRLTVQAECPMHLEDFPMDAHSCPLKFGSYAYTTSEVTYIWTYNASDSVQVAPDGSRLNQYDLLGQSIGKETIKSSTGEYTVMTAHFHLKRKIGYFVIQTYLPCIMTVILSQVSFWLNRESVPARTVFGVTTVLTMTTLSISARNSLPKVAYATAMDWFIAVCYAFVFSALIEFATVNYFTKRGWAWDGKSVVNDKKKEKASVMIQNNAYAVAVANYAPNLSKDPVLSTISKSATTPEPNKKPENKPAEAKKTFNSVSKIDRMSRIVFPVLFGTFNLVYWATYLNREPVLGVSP
Sequence of human α2β2γ2 GABAA receptors (P47870 25-512 limits assumed): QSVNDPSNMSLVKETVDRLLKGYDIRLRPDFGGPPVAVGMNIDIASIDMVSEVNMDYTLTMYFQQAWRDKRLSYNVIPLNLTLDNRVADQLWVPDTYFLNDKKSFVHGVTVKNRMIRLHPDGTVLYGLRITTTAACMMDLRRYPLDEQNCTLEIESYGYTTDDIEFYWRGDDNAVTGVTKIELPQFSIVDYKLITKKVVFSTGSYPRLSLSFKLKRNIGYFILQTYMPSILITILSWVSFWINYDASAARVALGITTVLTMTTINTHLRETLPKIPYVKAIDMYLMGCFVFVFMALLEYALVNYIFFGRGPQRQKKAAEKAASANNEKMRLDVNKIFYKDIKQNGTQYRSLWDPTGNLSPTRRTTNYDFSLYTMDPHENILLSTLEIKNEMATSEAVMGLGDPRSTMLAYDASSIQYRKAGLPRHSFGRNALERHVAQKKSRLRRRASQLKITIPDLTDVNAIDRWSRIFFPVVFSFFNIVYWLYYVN
Sequence of human α2β2γ2 GABAA receptors (P18507 40-475): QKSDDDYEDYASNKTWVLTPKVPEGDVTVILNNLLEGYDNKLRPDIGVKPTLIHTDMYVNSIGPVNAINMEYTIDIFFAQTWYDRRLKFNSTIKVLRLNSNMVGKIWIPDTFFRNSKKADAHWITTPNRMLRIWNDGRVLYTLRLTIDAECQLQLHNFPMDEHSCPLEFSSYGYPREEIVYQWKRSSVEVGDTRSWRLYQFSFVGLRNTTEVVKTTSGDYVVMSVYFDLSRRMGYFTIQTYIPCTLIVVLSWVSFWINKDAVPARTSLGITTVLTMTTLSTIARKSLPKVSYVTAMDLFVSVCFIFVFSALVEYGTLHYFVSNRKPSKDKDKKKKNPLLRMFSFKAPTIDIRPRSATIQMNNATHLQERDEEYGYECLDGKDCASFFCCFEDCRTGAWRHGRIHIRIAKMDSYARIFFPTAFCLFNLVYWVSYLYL

[12] = target: Dopamine, D4.4 (h) (Homo sapiens, UniProt P21917); assay: in vitro selectivity profile; assay type: binding
[13] = target: T1, human GlyRα3 glycine receptors (Homo sapiens, UniProt O75311); assay: submaximal glycine currents in CHO cells; assay type: cell-based
T1 sequence (O75311 34-464): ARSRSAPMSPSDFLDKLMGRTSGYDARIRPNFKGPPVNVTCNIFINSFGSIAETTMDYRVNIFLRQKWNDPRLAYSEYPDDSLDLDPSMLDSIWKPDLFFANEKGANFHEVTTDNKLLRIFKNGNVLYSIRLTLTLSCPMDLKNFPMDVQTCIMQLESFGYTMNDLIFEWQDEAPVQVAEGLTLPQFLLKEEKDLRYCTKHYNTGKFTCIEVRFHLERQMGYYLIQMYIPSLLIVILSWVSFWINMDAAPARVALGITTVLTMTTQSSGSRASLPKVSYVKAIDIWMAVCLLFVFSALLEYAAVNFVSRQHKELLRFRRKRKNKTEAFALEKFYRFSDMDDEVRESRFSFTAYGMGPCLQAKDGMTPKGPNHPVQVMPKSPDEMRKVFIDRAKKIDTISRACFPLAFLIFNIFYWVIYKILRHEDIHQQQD

[14] = target: hKv7.2 potassium channels (Homo sapiens, UniProt O43526); assay: whole-cell patch clamp, hKv7.2 in CHO cells; assay type: cell-based; details: depolarizing pulse +20 mV from holding potential −80 mV
Sequence of hKv7.2 potassium channels (O43526 whole entry): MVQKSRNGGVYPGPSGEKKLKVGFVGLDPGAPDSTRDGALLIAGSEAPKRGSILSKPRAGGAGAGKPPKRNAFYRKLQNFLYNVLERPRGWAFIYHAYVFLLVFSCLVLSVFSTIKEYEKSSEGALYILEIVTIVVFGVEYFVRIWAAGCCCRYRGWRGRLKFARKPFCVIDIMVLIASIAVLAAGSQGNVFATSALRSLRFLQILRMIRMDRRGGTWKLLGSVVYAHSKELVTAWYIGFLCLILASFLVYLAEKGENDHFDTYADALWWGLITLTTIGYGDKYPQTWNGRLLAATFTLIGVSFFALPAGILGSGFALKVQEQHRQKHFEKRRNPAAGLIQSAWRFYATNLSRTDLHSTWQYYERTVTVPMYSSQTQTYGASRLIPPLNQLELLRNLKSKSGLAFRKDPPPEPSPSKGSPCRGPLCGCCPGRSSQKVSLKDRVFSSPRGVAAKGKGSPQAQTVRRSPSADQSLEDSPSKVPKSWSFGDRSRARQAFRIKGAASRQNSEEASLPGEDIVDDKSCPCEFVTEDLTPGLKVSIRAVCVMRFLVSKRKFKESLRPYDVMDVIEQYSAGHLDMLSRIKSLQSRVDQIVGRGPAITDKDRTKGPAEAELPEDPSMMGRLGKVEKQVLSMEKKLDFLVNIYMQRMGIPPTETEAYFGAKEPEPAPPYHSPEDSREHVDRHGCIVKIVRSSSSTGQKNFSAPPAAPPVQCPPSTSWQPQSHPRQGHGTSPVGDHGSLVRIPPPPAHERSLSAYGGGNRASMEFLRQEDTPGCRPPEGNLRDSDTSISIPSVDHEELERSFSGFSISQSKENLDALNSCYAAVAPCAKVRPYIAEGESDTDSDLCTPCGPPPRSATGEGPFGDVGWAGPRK

[15] = system: Oxidase, MAO-B, central; assay: in vitro selectivity profile; assay type: biochemical; details: eslicarbazepine 400 μmol/L
[16] = system: Histamine, H1; assay: in vitro selectivity profile; assay type: binding; details: eslicarbazepine 400 μmol/L
[17] = target: human Nav1.3 sodium channels (Homo sapiens, UniProt Q9NY46); assay: whole-cell patch clamp, Nav1.3 in CHO-K1 cells; assay type: cell-based; details: 250 μmol/L
Sequence of human Nav1.3 sodium channels (Q9NY46 whole entry): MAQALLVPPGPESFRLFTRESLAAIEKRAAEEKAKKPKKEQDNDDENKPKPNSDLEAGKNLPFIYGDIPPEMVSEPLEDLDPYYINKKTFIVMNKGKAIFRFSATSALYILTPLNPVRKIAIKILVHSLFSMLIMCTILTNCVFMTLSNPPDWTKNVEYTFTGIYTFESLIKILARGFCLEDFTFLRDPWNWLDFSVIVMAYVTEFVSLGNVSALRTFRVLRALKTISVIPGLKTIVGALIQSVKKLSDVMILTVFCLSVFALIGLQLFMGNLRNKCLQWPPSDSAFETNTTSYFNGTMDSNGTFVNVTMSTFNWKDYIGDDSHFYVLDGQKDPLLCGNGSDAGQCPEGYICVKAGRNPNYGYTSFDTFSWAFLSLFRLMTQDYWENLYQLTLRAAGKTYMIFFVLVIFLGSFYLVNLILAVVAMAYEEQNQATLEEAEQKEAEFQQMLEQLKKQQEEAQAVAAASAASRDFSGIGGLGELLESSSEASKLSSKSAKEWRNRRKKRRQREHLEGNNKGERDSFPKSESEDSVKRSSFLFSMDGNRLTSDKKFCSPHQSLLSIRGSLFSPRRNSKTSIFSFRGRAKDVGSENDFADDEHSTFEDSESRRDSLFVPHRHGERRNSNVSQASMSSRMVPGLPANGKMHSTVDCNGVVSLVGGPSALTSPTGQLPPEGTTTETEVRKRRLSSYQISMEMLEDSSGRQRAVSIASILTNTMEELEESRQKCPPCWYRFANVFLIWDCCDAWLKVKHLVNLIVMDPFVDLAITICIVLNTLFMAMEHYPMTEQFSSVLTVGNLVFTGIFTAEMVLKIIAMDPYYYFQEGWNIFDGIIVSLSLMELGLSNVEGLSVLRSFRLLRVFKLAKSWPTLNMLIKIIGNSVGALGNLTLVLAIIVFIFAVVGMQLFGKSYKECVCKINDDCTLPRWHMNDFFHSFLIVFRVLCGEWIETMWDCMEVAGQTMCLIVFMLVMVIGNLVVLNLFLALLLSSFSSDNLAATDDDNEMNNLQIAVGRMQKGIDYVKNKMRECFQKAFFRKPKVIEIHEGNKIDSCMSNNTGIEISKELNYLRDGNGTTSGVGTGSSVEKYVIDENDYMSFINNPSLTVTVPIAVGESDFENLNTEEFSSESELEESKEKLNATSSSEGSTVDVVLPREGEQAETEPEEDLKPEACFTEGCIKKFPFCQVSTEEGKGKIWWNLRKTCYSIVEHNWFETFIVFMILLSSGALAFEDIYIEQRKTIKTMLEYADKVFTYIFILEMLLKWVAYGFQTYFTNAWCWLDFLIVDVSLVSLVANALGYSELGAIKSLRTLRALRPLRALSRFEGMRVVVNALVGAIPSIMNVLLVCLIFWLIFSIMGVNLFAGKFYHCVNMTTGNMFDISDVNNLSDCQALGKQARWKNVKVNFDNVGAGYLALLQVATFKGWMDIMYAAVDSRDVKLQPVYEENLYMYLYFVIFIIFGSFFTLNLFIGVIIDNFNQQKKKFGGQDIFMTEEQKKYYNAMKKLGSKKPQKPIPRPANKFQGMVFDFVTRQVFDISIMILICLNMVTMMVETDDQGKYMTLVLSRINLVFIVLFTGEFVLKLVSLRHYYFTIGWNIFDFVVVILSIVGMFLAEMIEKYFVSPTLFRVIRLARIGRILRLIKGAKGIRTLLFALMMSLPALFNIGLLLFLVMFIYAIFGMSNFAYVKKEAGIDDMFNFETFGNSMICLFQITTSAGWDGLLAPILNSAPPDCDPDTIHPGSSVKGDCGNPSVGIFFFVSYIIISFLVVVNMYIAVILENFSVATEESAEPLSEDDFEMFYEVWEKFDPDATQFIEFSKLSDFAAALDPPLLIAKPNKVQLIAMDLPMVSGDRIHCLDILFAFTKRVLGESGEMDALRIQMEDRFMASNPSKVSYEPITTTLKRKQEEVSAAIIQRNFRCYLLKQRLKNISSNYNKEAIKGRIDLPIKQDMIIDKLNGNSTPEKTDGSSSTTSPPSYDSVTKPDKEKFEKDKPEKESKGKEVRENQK

[18] = target: Anhydrase, carbonic, isozyme I (h) (Homo sapiens, UniProt P00915); assay: in vitro selectivity profile; assay type: biochemical
[19] = system: sodium channels endogenously expressed in N1E-115 mouse neuroblastoma cells; details: 250 μmol/L; ref Hebeisen et al. [2014]; cited from earlier work
[20] = system: GABA-B; assay: in vitro selectivity profile; assay type: binding; details: eslicarbazepine 400 μmol/L
[21] = target: Serotonin, 5HT1A (h) (Homo sapiens, UniProt P08908); assay: in vitro selectivity profile; assay type: binding
Sequence of Serotonin, 5HT1A (h) (P08908 whole entry): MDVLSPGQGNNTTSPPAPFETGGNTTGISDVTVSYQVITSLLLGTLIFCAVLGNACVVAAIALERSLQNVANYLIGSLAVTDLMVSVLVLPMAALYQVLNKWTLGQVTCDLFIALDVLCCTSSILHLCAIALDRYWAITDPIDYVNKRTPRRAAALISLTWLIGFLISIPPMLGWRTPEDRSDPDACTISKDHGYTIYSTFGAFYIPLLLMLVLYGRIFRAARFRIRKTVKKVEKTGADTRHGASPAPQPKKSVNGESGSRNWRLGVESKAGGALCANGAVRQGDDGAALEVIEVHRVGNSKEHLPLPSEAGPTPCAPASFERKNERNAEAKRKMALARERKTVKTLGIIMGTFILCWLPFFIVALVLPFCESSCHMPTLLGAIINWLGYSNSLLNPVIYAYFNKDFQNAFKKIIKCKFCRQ

[22] = cited from earlier work
[23] = system: Transferase, choline acetyl; assay: in vitro selectivity profile; assay type: biochemical; details: eslicarbazepine 400 μmol/L
[24] = target: Dopamine, D4.2 (h) (Homo sapiens, UniProt P21917, DEL265-296); assay: in vitro selectivity profile; assay type: binding
[25] = target: Kinase, protein, ROCK2 (h) (Homo sapiens, UniProt O75116); assay: in vitro selectivity profile; assay type: biochemical
[26] = target: Neurotensin (h) (Homo sapiens, UniProt P30989); assay: in vitro selectivity profile; assay type: binding
[27] = system: Glutamate, kainate site; assay: in vitro selectivity profile; assay type: binding; details: eslicarbazepine 400 μmol/L
[28] = system: GABA A, BDZ, alpha 1 site; assay: in vitro selectivity profile; assay type: binding; details: eslicarbazepine 400 μmol/L
[29] = system: Potassium channel, ATP-sensitive; assay: in vitro selectivity profile; assay type: binding; details: eslicarbazepine 400 μmol/L
[30] = target: Serotonin, 5HT2A (h) (Homo sapiens, UniProt P28223); assay: in vitro selectivity profile; assay type: binding
[31] = system: Glutamate, MK-801 site; assay: in vitro selectivity profile; assay type: binding; details: eslicarbazepine 400 μmol/L
[32] = target: Kinase, protein, PKCz (h) (Homo sapiens, UniProt Q05513); assay: in vitro selectivity profile; assay type: biochemical
[33] = system: Serotonin, 5HT2C; assay: in vitro selectivity profile; assay type: binding; details: eslicarbazepine 400 μmol/L
[34] = system: Histamine, H3; assay: in vitro selectivity profile; assay type: binding; details: eslicarbazepine 400 μmol/L
[35] = system: Calcium channel, type N; assay: in vitro selectivity profile; assay type: binding; details: eslicarbazepine 400 μmol/L
[36] = system: Imidazoline, I2 [central]; assay: in vitro selectivity profile; assay type: binding; details: eslicarbazepine 400 μmol/L
[37] = Amygdala kindling, ESL 200 mg/kg i.p., 15 min, ref Soerensen et al. ([2011])
[38] = Amygdala kindling, ESL 300 mg/kg i.p., 15 min, ref Soerensen et al. ([2011])
[39] = Corneal kindling, ESL 100 mg/kg i.p., 60 min, ref Pekcec et al. ([2011])
[40] = MES test, ESL 50 mg/kg p.o., 60 min, ref Pires et al. ([2011])

## NC(=O)N1c2ccccc2C[C@H](O)c2ccccc21 [eslicarbazepine]
[1]
  intestinal transport M–S versus S–M and sensitivity to verapamil: of the same magnitude and insensitive to the P-glycoprotein inhibitor verapamil
[2]
  % inhibition: 23.75%
[3]
  inhibition at 400 µM: 0%
[4]
  % inhibition: 32.83%
[5]
  % inhibition: 15.98%
[6]
  % inhibition: 0.0%
[7]
  eslicarbazepine-free drug, peak plasma: 63 µmol/L
[8]
  % inhibition: 5.39%
[9]
  % inhibition: 0.0%
[10]
  inhibition at 400 µM: 0%
[11]; 50 μmol/L
  GABA inward current stimulation, α2β2γ2, Mean ± SEM: 91.6 ± 2.7
[11]; 100 μmol/L
  GABA inward current stimulation, α2β2γ2, Mean ± SEM: 97.0 ± 2.7
[11]; 250 μmol/L
  GABA inward current stimulation, α2β2γ2, Mean ± SEM: 88.6 ± 3.2
  effect on submaximal α2β2γ2 GABA currents: slight decrease
[11]; 500 μmol/L
  GABA inward current stimulation, α2β2γ2, Mean ± SEM: 89.8 ± 4.0
[11]; 50–500 μmol/L, exception at 250 μmol/L
  effect on submaximal α2β2γ2 GABA currents: did not significantly change submaximal GABA currents
[12]
  inhibition at 400 µM: 0%
[13]
  IC50: 1190 µM
[14]
  IC50, KV7.2 outward currents: no inhibitory effect
[15]
  % inhibition: 0.95%
[16]
  % inhibition: 23.23%
[17]; mean ± SEM, n = 3–6
  Fast inactivation V0.5: −40.68 ± 3.10 mV
  Slow inactivation V0.5: −26.61 ± 2.74 mV
[17]; control 20.29 sec
  time constant for entering the slow inactivated state: 14.02 s
[18]
  inhibition at 400 µM: 27.7%
[19]
  recovery of fast inactivated channels: recovered similar to control conditions
[20]
  % inhibition: 11.72%
[21]
  inhibition at 400 µM: 0.4%
[22]; [37]
  Brain (whole volume) Eslicarbazepine: 37.5 nmol/g
  Plasma eslicarbazepine: 236.2 µmol/L
[22]; [38]
  Brain (whole volume) Eslicarbazepine: 58.7 nmol/g
  Plasma eslicarbazepine: 282.8 µmol/L
[22]; [39]
  Brain (whole volume) Eslicarbazepine: 67.7 nmol/g
  Plasma eslicarbazepine: 168.1 µmol/L
[22]; [40]
  Brain (whole volume) Eslicarbazepine: 22 nmol/g and 22.0 nmol/g
  Plasma eslicarbazepine: 32 µmol/L and 31.5 µmol/L
[23]
  % inhibition: 0.0%
[24]
  inhibition at 400 µM: 0%
[25]
  inhibition at 400 µM: 8.54%
[26]
  inhibition at 400 µM: 4.94%
[27]
  % inhibition: 1.56%
[28]
  % inhibition: 25.92%
[29]
  % inhibition: 6.78%
[30]
  inhibition at 400 µM: 19.2%
[31]
  % inhibition: 15.45%
[32]
  inhibition at 400 µM: 1.48%
[33]
  % inhibition: 3.67%
[34]
  % inhibition: 0.0%
[35]
  % inhibition: 23.34%
[36]
  % inhibition: 17.45%
